According to patent publication US20190008804A1 (Repros Therapeutics Inc., priority 2016, published 2019):
Where two headings read alike, the source gives them in different places.

What was measured:
ERβ [1] = target: T1, ERβ (Homo sapiens, UniProt Q92731); test: ERβ coactivator response; type: biochemical; design: concentration or dose not given beside the values
Target sequence in this assay (Q92731 whole entry): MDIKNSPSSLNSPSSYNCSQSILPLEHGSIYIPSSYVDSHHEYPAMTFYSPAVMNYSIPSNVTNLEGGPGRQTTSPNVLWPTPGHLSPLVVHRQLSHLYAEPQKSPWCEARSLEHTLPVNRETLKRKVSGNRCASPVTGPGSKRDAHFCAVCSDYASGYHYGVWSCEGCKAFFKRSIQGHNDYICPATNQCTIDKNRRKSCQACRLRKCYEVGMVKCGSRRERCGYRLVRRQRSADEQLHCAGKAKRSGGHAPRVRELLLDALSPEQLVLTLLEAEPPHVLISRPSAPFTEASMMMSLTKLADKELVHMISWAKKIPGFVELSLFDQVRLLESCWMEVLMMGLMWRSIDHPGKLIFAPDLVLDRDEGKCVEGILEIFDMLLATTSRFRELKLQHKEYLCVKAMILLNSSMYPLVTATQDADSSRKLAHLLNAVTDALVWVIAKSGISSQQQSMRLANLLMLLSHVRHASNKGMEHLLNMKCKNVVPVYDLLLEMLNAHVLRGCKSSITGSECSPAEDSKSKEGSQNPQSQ

ERβ [2] = target: T1, ERβ; test: Estrogen ERβ competitive radioligand binding with [3H]estradiol; design: made in house; host or cells: insect Sf9 cells
Method: IC50 values were determined by non-linear least squares regression analysis. […] The Hill coefficient (nH) defines the slope of the competitive binding curve and was determined using MathIQ™ (ID Business Solutions Ltd., UK).
Estrogen ERβ • Source: Human recombinant insect Sf9 cells
Target sequence in this assay (Q92731 264-498 limits assumed): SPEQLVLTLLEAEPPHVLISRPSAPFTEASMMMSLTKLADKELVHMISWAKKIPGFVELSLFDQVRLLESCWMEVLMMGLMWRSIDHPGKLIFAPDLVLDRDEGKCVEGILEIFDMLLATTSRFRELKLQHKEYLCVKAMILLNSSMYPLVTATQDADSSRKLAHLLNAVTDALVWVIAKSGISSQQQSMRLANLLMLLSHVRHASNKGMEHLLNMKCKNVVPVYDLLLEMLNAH

ERβ [3] = target: T1, ERβ; details: reference compound, Estrogen ERβ; cited from earlier work
Target sequence in this assay (Q92731 264-498 limits assumed): as above

[4] = Bone calcium in female pigs after 180 days daily oral dosing; type: in vivo
Method: Active agents or placebo were administered after heat (estrus) in the luteal phase. […] All treatment groups received daily oral administration of the appropriate capsule(s) for 180 days. Daily general health observations and weekly body weight measurements were conducted for all groups. Following the 6 month administration period, calcium (parts per million (ppm) dry weight (dw)) was determined in rib and femur bone samples from pigs in each treatment group: […]

[5] = Co-administration of Proellex and Androxal in cycling female baboons, 180 days daily oral; type: in vivo; details: daily oral 180 days, Androxal 25 mg
Method: All treatment groups received daily oral administration of the appropriate capsule(s) for 180 days. Daily oral dosing was started in the luteal phase. […] Daily observations of estrus (heat) were conducted for all groups.

[6] = third of three separate radioligand binding studies, read-out: Receptor Binding ERβ IC50

With `CCNCCOc1ccc(/C(=C(/Cl)c2ccccc2)c2ccccc2)cc1` [N-Desethyl enclomiphene, (E)-desethyl Clomiphene] the “ERβ Coactivator Response Ant (antagonist)” value (“ERβ Coactivator Response Ant” for short) (ERβ [1]; second of two separate studies) was 74% and the IC50 (ERβ [2]; [6]) was 1.13 nM.

In the case of `CC/C(=C(/CC)c1ccc(O)cc1)c1ccc(O)cc1` [Diethylstilbestrol], the “Historical nH” value (ERβ [3]) is given as 1.20.

In the case of `NCCOc1ccc(/C(=C(/Cl)c2ccccc2)c2ccccc2)cc1` [Di-de-ethyl-enclomiphene, (E)-di-desethyl Clomiphene], the “ERβ Coactivator Response Ant” value (ERβ [1]; first of two separate studies) is reported as 87%.

In the case of `COCC(=O)[C@@]1(OC(C)=O)CC[C@H]2[C@@H]3CCC4=CC(=O)CCC4=C3[C@@H](c3ccc(N(C)C)cc3)C[C@@]21C` [Proellex, 21-methoxy-17α-acetoxy-11β-(4 N, N-dimethylaminophenyl)-19-norpregna-4,9-diene-3,20-dione], the “effect on calcium content of bone” value ([4]; pig, in vivo, po) is reported as “did not affect the calcium content of bone”, the “cycling of vaginal bleeding” value ([5]; Proellex 12 mg) is reported as “stopped” and the endometrial thickness ([5]; Proellex 12 mg) is reported as “increase in endometrial thickness”. For the same compound, the “swelling (turgesence) of the tissue around the tail under the control of estrogen” value ([5]; Proellex 12 mg) was “not proellex alone inhibited the swelling”.

For `CC[N+]([O-])(CC)CCOc1ccc(/C(=C(/Cl)c2ccccc2)c2ccccc2)cc1` [Enclomiphene-NO, (E)-Clomiphene-NO], the “ERβ Coactivator Response Ant” value (ERβ [1]; first of two separate studies) was 95%.

With `CCNCCOc1ccc(/C(=C(/Cl)c2ccccc2)c2ccc(O)cc2)cc1` [4-OH-N-Desethyl enclomiphene, (E)-4-OH-desethyl Clomiphene] the “ERβ Coactivator Response Ant” value (ERβ [1]; second of two separate studies) was 104% and the IC50 (ERβ [2]; [6]) was 0.45 nM.

In the case of `CCN(CC)CCOc1ccc(/C(=C(/Cl)c2ccccc2)c2ccccc2)cc1` [Enclomiphene, trans-clomiphene], the “effect on calcium content of bone” value ([4]; female pigs, daily oral 180 days) is reported as “did not affect the calcium content of bone”, the “Ca (ppm dw), Mean” value ([4]; rib and femur bone samples, female pigs n = 3, daily oral 180 days, Proellex 12 mg, Androxal 25 mg) is reported as 139300.00 ppm dw and the “ERβ Coactivator Response Ant” value (ERβ [1]; first of two separate studies) is reported as 65%. The cycling [5] was “prevented cycling”, the “cycling of vaginal bleeding” value ([5]; Proellex 12 mg) was “stopped” and the “swelling (turgesence) of the tissue around the tail under the control of estrogen” value ([5]; Proellex 12 mg) was “inhibited the swelling”.

For `CCN(CC)CCOc1ccc(/C(=C(/Cl)c2ccccc2)c2ccc(O)cc2)cc1` [4-OH-enclomiphene, (E)-4-OH-Clomiphene], the “ERβ Coactivator Response Ant” value (ERβ [1]; first of two separate studies) was 60%, the “nH (Hill coefficient)” value (ERβ [2]; ERβ, hum) was 1.56 and the “% Inh.” value (ERβ [2]; ERβ, hum, Conc. 0.9 nM) was 67%. For the same compound, the Ki (ERβ [2]; ERβ, hum, Cheng-Prusoff) was 0.12 nM, the IC50 (ERβ [2]; ERβ, hum, additional data, read-out: IC50) was 0.57 nM and the “ligand preference ERα versus ERβ” value (ERβ [2]; based on binding and co-activator studies) was “better ligand for ERβ”. The IC50 (ERβ [2]; first of three separate radioligand binding studies, read-out: Receptor Binding ERβ IC50) was 0.57 nM and the IC50 (ERβ [2]; second of three separate radioligand binding studies, read-out: Receptor Binding ERβ IC50) was 0.41 nM.
